Assay results taken from ChEMBL document CHEMBL1201862, “PubChem BioAssay data set” (2004).
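Cultured in 96-well plates, cells were exposed to test compound for 48 hours across five concentrations. Abbreviation: GI50, concentration required for 50% inhibition of growth.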 Calls of active or inactive are those of the source. No stated cut-off is given here; in the data, active = GI50 up to about 1.1 µM and inactive = higher.

Key:
Assay in all cases: growth of human tumour cells (NCI), 48 h
786-0 = test system: 786-0
A549 = test system: A549
COLO 205 = test system: COLO 205
HOP-62 = test system: HOP-62
HOP-92 = test system: HOP-92
M14 = test system: M14
NCI-H460 = test system: NCI-H460
NCI-H522 = test system: NCI-H522
OVCAR-4 = test system: OVCAR-4
PC-3 = test system: PC-3
RPMI-8226 = test system: RPMI-8226
SF-295 = test system: SF-295
SF-539 = test system: SF-539
SK-OV-3 = test system: SK-OV-3
SNB-19 = test system: SNB-19
SR = test system: SR
HT-29 = test system: HT-29
LOX IMVI = test system: LOX IMVI
SK-MEL-5 = test system: SK-MEL-5
Hs-578T = test system: Hs-578T

SMILES | GI50 (786-0) | GI50 (A549) | GI50 (COLO 205) | GI50 (HOP-62) | GI50 (HOP-92) | GI50 (M14) | GI50 (NCI-H460) | GI50 (NCI-H522) | GI50 (OVCAR-4) | GI50 (PC-3) | GI50 (RPMI-8226) | GI50 (SF-295) | GI50 (SF-539) | GI50 (SK-OV-3) | GI50 (SNB-19) | GI50 (SR) | GI50 (HT-29) | GI50 (LOX IMVI) | GI50 (SK-MEL-5) | GI50 (Hs-578T)
N#Cc1c(-c2ccc(Cl)cc2)cc(-c2ccc(Nc3ccnc4cc(Cl)ccc34)cc2)nc1N | > 100 µM (inactive) | > 100 µM (inactive) | > 100 µM (inactive) | > 100 µM (inactive) | > 100 µM (inactive) | > 100 µM (inactive) | > 100 µM (inactive) | 41.7 µM (inactive) | 38.2 µM (inactive) | > 100 µM (inactive) | > 100 µM (inactive) | > 100 µM (inactive) | 87.7 µM (inactive) | > 100 µM (inactive) | 28.8 µM (inactive) | 5.45 µM (inactive) | – | – | – | –
COC(=O)C1=CO[C@@H](OC2CC(CO)C(O)C(O)C2O)[C@@H]2[C@@H](C)[C@@H](OC(=O)/C=C/c3ccccc3)[C@@H](O)[C@H]12.COC(=O)C1=CO[C@@H](OC2CC(CO)C(O)C(O)C2O)[C@@H]2[C@@H](C)[C@@H](OC(=O)c3ccccc3)[C@@H](O)[C@H]12 (some centres not stated) | > 100 µM (inactive) | > 100 µM (inactive) | > 100 µM (inactive) | > 100 µM (inactive) | > 100 µM (inactive) | > 100 µM (inactive) | – | > 100 µM (inactive) | > 100 µM (inactive) | – | > 100 µM (inactive) | > 100 µM (inactive) | > 100 µM (inactive) | > 100 µM (inactive) | 10 µM (inactive) | 66.7 µM (inactive) | > 100 µM (inactive) | > 100 µM (inactive) | > 100 µM (inactive) | –
Cc1ccccc1NC(=O)c1c(C)oc2c1C(=O)c1ccccc1C2=O | 27 µM (inactive) | 32.7 µM (inactive) | 53.3 µM (inactive) | > 56.1 µM (inactive) | 20.3 µM (inactive) | 20.9 µM (inactive) | 32.4 µM (inactive) | 16.5 µM (inactive) | 2.09 µM (inactive) | – | 22.6 µM (inactive) | 40.3 µM (inactive) | 25.9 µM (inactive) | > 100 µM (inactive) | 35.6 µM (inactive) | 26.1 µM (inactive) | 35.9 µM (inactive) | 16 µM (inactive) | 13.2 µM (inactive) | –
CC1=CC(=O)C(=CN2C(=O)/C(=C\c3cccnc3)NC2=S)C(=O)O1 | > 100 µM (inactive) | > 100 µM (inactive) | > 100 µM (inactive) | > 100 µM (inactive) | > 100 µM (inactive) | > 100 µM (inactive) | > 100 µM (inactive) | – | > 100 µM (inactive) | > 100 µM (inactive) | – | > 100 µM (inactive) | > 100 µM (inactive) | > 100 µM (inactive) | > 100 µM (inactive) | – | > 100 µM (inactive) | > 100 µM (inactive) | > 100 µM (inactive) | –
O=C(Nc1cccs1)c1c(O)[nH]c(=S)[nH]c1=O | > 100 µM (inactive) | > 100 µM (inactive) | > 100 µM (inactive) | > 100 µM (inactive) | > 100 µM (inactive) | > 100 µM (inactive) | > 100 µM (inactive) | > 100 µM (inactive) | > 100 µM (inactive) | – | > 100 µM (inactive) | > 100 µM (inactive) | > 100 µM (inactive) | > 100 µM (inactive) | > 100 µM (inactive) | > 100 µM (inactive) | – | > 100 µM (inactive) | > 100 µM (inactive) | –
CCCCOc1ccc(S(=O)(=O)/N=C(\NN)Nc2ccc(Cl)cc2)cc1 | 17.1 µM (inactive) | 17.8 µM (inactive) | 18 µM (inactive) | 20.4 µM (inactive) | 25.2 µM (inactive) | 24.2 µM (inactive) | 16.4 µM (inactive) | – | 19.1 µM (inactive) | 17.7 µM (inactive) | 30.1 µM (inactive) | 23.4 µM (inactive) | 17.7 µM (inactive) | 27 µM (inactive) | 53.5 µM (inactive) | 21.2 µM (inactive) | 22.3 µM (inactive) | 19.8 µM (inactive) | 35.9 µM (inactive) | –
COc1cc(/C=N/n2c(Cc3ccc(Cl)cc3)n[nH]c2=O)cc(OC)c1OC | > 100 µM (inactive) | > 100 µM (inactive) | > 100 µM (inactive) | 37.6 µM (inactive) | – | > 100 µM (inactive) | 33.5 µM (inactive) | – | > 100 µM (inactive) | > 100 µM (inactive) | – | > 100 µM (inactive) | 44.8 µM (inactive) | > 100 µM (inactive) | > 100 µM (inactive) | – | > 100 µM (inactive) | – | – | 1.32 µM (inactive)
COc1cc(/C=C2/C[C@H]3[C@@H]4CC=C5C[C@@H](O)CC[C@]5(C)[C@H]4CC[C@]3(C)NC2=O)cc(OC)c1OC | 17.7 µM (inactive) | 15 µM (inactive) | > 38.9 µM (inactive) | 23.1 µM (inactive) | 3.69 µM (inactive) | 30.5 µM (inactive) | 11.8 µM (inactive) | 5.33 µM (inactive) | 15.1 µM (inactive) | 18.7 µM (inactive) | 5.46 µM (inactive) | 19.6 µM (inactive) | 30.7 µM (inactive) | 31.6 µM (inactive) | 20.1 µM (inactive) | 39.8 µM (inactive) | 24 µM (inactive) | 20 µM (inactive) | 6.7 µM (inactive) | –
CC(=O)NNc1nc(C)c(C(=O)NNC(=O)C(=O)Nc2c(C)cccc2C(C)C)s1 | > 100 µM (inactive) | 61 µM (inactive) | > 100 µM (inactive) | > 100 µM (inactive) | 78 µM (inactive) | > 100 µM (inactive) | 86.3 µM (inactive) | 35.4 µM (inactive) | 32.8 µM (inactive) | – | 57.5 µM (inactive) | 89.9 µM (inactive) | 95.9 µM (inactive) | > 100 µM (inactive) | > 100 µM (inactive) | 40 µM (inactive) | > 100 µM (inactive) | 55.5 µM (inactive) | 95.1 µM (inactive) | –
CCOC(=O)C1=C(OC(OCC)C(C)[Se]c2ccccc2)CCC1 (configuration not stated) | 12.5 µM (inactive) | 49.9 µM (inactive) | 25.1 µM (inactive) | 64.6 µM (inactive) | 24.5 µM (inactive) | 20.5 µM (inactive) | 25.4 µM (inactive) | 13.1 µM (inactive) | 18 µM (inactive) | – | 13 µM (inactive) | 19.8 µM (inactive) | 17.5 µM (inactive) | 94 µM (inactive) | 36.1 µM (inactive) | 6.4 µM (inactive) | 28.1 µM (inactive) | 7.21 µM (inactive) | 19.1 µM (inactive) | –
CC(=O)OC1COC(N2C(=O)/C(=N\NC(N)=S)c3cc(Br)ccc32)C(OC(C)=O)C1OC(C)=O (configuration not stated) | > 100 µM (inactive) | 43.3 µM (inactive) | 38.1 µM (inactive) | 98.6 µM (inactive) | > 100 µM (inactive) | > 100 µM (inactive) | 23.8 µM (inactive) | > 100 µM (inactive) | 42.6 µM (inactive) | – | 17.6 µM (inactive) | 45.3 µM (inactive) | 43.5 µM (inactive) | > 100 µM (inactive) | > 100 µM (inactive) | 19.5 µM (inactive) | > 100 µM (inactive) | 38.9 µM (inactive) | 85.9 µM (inactive) | –
O=C1/C(=C/c2ccc3c(c2)CCC3)Cc2cc3c(cc21)CCC3 | – | > 100 µM (inactive) | > 100 µM (inactive) | > 100 µM (inactive) | < 0.01 µM (active) | > 100 µM (inactive) | > 100 µM (inactive) | > 100 µM (inactive) | > 100 µM (inactive) | > 100 µM (inactive) | > 100 µM (inactive) | > 100 µM (inactive) | > 100 µM (inactive) | > 100 µM (inactive) | 61.9 µM (inactive) | > 100 µM (inactive) | > 100 µM (inactive) | > 100 µM (inactive) | > 100 µM (inactive) | –
O=C1C=C(Nc2ccc(S(=O)(=O)Nc3ncccn3)cc2)c2ccccc2C1=O | 19.8 µM (inactive) | 25.3 µM (inactive) | 22.5 µM (inactive) | 24.5 µM (inactive) | 33 µM (inactive) | 18.2 µM (inactive) | 20.7 µM (inactive) | 17.8 µM (inactive) | 21.8 µM (inactive) | – | 37.6 µM (inactive) | 20.6 µM (inactive) | 27.3 µM (inactive) | 26.7 µM (inactive) | 31.2 µM (inactive) | 8.53 µM (inactive) | 22.6 µM (inactive) | 15.8 µM (inactive) | 18.2 µM (inactive) | –
CCCCOCn1c(=O)[nH]c(=O)c2cc(Br)ccc21 | 53.3 µM (inactive) | 48.2 µM (inactive) | 72.1 µM (inactive) | – | 51.1 µM (inactive) | 87.1 µM (inactive) | – | – | 49.3 µM (inactive) | 35.2 µM (inactive) | – | 54.6 µM (inactive) | > 100 µM (inactive) | > 100 µM (inactive) | 33.2 µM (inactive) | 46.2 µM (inactive) | 23.4 µM (inactive) | 58.5 µM (inactive) | 33.1 µM (inactive) | –
O=C(COc1cc(=O)oc2ccccc12)c1ccccc1 | 30.2 µM (inactive) | 97.3 µM (inactive) | – | 37.8 µM (inactive) | 16.7 µM (inactive) | 42 µM (inactive) | > 100 µM (inactive) | 32.4 µM (inactive) | 29.6 µM (inactive) | – | > 100 µM (inactive) | 29.1 µM (inactive) | 21.5 µM (inactive) | – | 21.7 µM (inactive) | > 100 µM (inactive) | 22.6 µM (inactive) | 41.1 µM (inactive) | 37.7 µM (inactive) | 24.9 µM (inactive)
